In PubChem BioAssay (NCI):
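Following 48 hours of exposure in 96-well plates, responses at five concentrations were used to interpolate endpoints linearly. GI50: concentration for 50% inhibition of growth. TGI is the concentration that stops growth completely.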

How the values were obtained:
Test in all cases: NCI-60 cell line screen, 48 h
A498 renal = tested on: A498 renal
SK-OV-3 ovarian = tested on: SK-OV-3 ovarian
HT29 colon = tested on: HT29 colon
MOLT-4 leukemia = tested on: MOLT-4 leukemia
SF-268 CNS = tested on: SF-268 CNS
UO-31 renal = tested on: UO-31 renal
OVCAR-5 ovarian = tested on: OVCAR-5 ovarian
HCT-116 colon = tested on: HCT-116 colon
SW-620 colon = tested on: SW-620 colon
HCC-2998 colon = tested on: HCC-2998 colon
CCRF-CEM leukemia = tested on: CCRF-CEM leukemia
IGROV1 ovarian = tested on: IGROV1 ovarian
NCI-H460 lung = tested on: NCI-H460 lung
SN12C renal = tested on: SN12C renal
SNB-19 CNS = tested on: SNB-19 CNS
COLO 205 colon = tested on: COLO 205 colon
SR leukemia = tested on: SR leukemia
NCI-H522 lung = tested on: NCI-H522 lung
TK-10 renal = tested on: TK-10 renal
NCI-H23 lung = tested on: NCI-H23 lung
PC-3 prostate = tested on: PC-3 prostate
MDA-MB-231 breast = tested on: MDA-MB-231 breast
BT-549 breast = tested on: BT-549 breast
KM12 colon = tested on: KM12 colon
786-0 renal = tested on: 786-0 renal
OVCAR-8 ovarian = tested on: OVCAR-8 ovarian
RPMI-8226 leukemia = tested on: RPMI-8226 leukemia
K-562 leukemia = tested on: K-562 leukemia
NCI-H226 lung = tested on: NCI-H226 lung
HOP-62 NSCLC = tested on: HOP-62 NSCLC
HS 578T breast = tested on: HS 578T breast
UACC-257 melanoma = tested on: UACC-257 melanoma
SK-MEL-5 melanoma = tested on: SK-MEL-5 melanoma
ACHN renal = tested on: ACHN renal
HCT-15 colon = tested on: HCT-15 colon
NCI/ADR-RES ovarian = tested on: NCI/ADR-RES ovarian
LOX IMVI melanoma = tested on: LOX IMVI melanoma
OVCAR-4 ovarian = tested on: OVCAR-4 ovarian
UACC-62 melanoma = tested on: UACC-62 melanoma
EKVX NSCLC = tested on: EKVX NSCLC
DU-145 prostate = tested on: DU-145 prostate
SNB-75 CNS = tested on: SNB-75 CNS
SF-295 CNS = tested on: SF-295 CNS
U251 CNS = tested on: U251 CNS
SK-MEL-28 melanoma = tested on: SK-MEL-28 melanoma
M14 melanoma = tested on: M14 melanoma
MCF7 breast = tested on: MCF7 breast

## COC(=O)[C@@H](C)C[C@H](Cc1ccc2ccccc2c1)NC(=O)c1csc([C@@H](C[C@H](C(C)C)N(C)C(=O)[C@@H](NC(=O)[C@H]2CCCCN2C)C(C)C)OC(C)=O)n1
A498 renal
  GI50: 74.5 nM
  TGI: > 25000 nM
SK-OV-3 ovarian
  GI50: 48 nM
  TGI: > 25000 nM
HT29 colon
  GI50: 8.29 nM
  TGI: 4520 nM
MOLT-4 leukemia
  GI50: 11.5 nM
  TGI: 7540 nM
SF-268 CNS
  GI50: 21 nM
  TGI: > 25000 nM
UO-31 renal
  GI50: 286 nM
  TGI: 5180 nM
OVCAR-5 ovarian
  GI50: 62.9 nM
  TGI: > 25000 nM
HCT-116 colon
  GI50: 8.65 nM
  TGI: 13000 nM
SW-620 colon
  GI50: 14.7 nM
  TGI: > 25000 nM
HCC-2998 colon
  GI50: 52.9 nM
  TGI: 21600 nM
CCRF-CEM leukemia
  GI50: 10.3 nM
  TGI: > 25000 nM
IGROV1 ovarian
  GI50: 18.3 nM
  TGI: > 25000 nM
NCI-H460 lung
  GI50: 11.8 nM
  TGI: > 25000 nM
SN12C renal
  GI50: 47 nM
  TGI: > 25000 nM
SNB-19 CNS
  GI50: 15.3 nM
  TGI: > 25000 nM
COLO 205 colon
  GI50: 16 nM
  TGI: 282 nM
SR leukemia
  GI50: 2.5 nM
  TGI: 3570 nM
NCI-H522 lung
  GI50: 5.61 nM
  TGI: 6030 nM
TK-10 renal
  GI50: 8800 nM
  TGI: > 25000 nM
NCI-H23 lung
  GI50: 28.1 nM
  TGI: > 25000 nM
PC-3 prostate
  GI50: 10.6 nM
  TGI: 7770 nM
MDA-MB-231 breast
  GI50: 20.6 nM
  TGI: 7170 nM
BT-549 breast
  GI50: 13 nM
  TGI: 374 nM
KM12 colon
  GI50: 11 nM
  TGI: > 25000 nM
786-0 renal
  GI50: 9.94 nM
  TGI: 5080 nM
OVCAR-8 ovarian
  GI50: 44.5 nM
  TGI: > 25000 nM
RPMI-8226 leukemia
  GI50: 9.32 nM
  TGI: 5990 nM
K-562 leukemia
  GI50: 7.06 nM
  TGI: 8760 nM
NCI-H226 lung
  GI50: 7110 nM
  TGI: > 25000 nM
HOP-62 NSCLC
  GI50: 22.1 nM
  TGI: > 25000 nM
HS 578T breast
  GI50: 12.2 nM
  TGI: > 25000 nM
UACC-257 melanoma
  GI50: 4130 nM
  TGI: 9420 nM
SK-MEL-5 melanoma
  GI50: 12.2 nM
  TGI: 1420 nM
ACHN renal
  GI50: 164 nM
  TGI: 4590 nM
HCT-15 colon
  GI50: 52.2 nM
  TGI: > 25000 nM
NCI/ADR-RES ovarian
  GI50: 614 nM
  TGI: > 25000 nM
LOX IMVI melanoma
  GI50: 13 nM
  TGI: 4780 nM
OVCAR-4 ovarian
  GI50: 129 nM
  TGI: > 25000 nM
UACC-62 melanoma
  GI50: 9.95 nM
  TGI: 7780 nM
EKVX NSCLC
  GI50: 41.8 nM
  TGI: > 25000 nM
DU-145 prostate
  GI50: 9.84 nM
  TGI: > 25000 nM
SNB-75 CNS
  GI50: 5.24 nM
  TGI: > 25000 nM
SF-295 CNS
  GI50: 10.7 nM
  TGI: > 25000 nM
U251 CNS
  GI50: 12.8 nM
  TGI: 10700 nM
SK-MEL-28 melanoma
  GI50: 2700 nM
  TGI: 6600 nM
M14 melanoma
  GI50: 12.9 nM
  TGI: 4290 nM
MCF7 breast
  GI50: 6.99 nM
  TGI: 9210 nM
